Results published in ChEMBL document CHEMBL1155531, “Structure guided design of 5-arylindazole glucocorticoid receptor agonists and antagonists” (J Med Chem, 2010).

Tests used:
[1] = Plasma concentration in mouse bearing mouse NIH-3T3 cells integrated with MMTV reporter gene at 10 mg/kg, po after 1 hr; assay type: ADME, organism-based, NIH3T3; design: dose 10 mg/kg, route oral
Hepatocyte = assay: Toxicity in human hepatocytes assessed as increase in PEPCK mRNA level after 18 hrs by PCR; assay type: cell-based
[2] = Relative fraction unbound in mouse assessed as ratio of fraction unbound in mouse at 0.1 mg/kg, po to IC50 for NF-kappaB transrepression activity in A549 cells expressing MMTV reporter gene; assay type: ADME, organism-based; design: dose 0.1 mg/kg, route oral; settings: in vivo
[3] = Elimination half life in DBA1 mouse at 1 mg/kg, po and 1 mg/kg, iv; assay type: ADME, organism-based; settings: in vivo, read-out: beta t1/2 (converted)
[4] = Antiinflammatory activity in human primary synovial fibroblasts assessed as inhibition of IL1-induced MMP1 release after 18 hrs by MSD technology; assay type: functional
[5] = Relative fraction unbound in mouse assessed as ratio of fraction unbound in mouse at 1 mg/kg, po to IC50 for NF-kappaB transrepression activity in A549 cells expressing MMTV reporter gene; assay type: ADME, organism-based; design: dose 1 mg/kg, route oral; settings: in vivo
[6] = Oral bioavailability in CD rat at 1 mg/kg; assay type: ADME, organism-based; settings: in vivo
Progesterone receptor = target: T1, Progesterone receptor (Homo sapiens, UniProt P06401); assay: Binding affinity to PR
T1 sequence (P06401 whole entry): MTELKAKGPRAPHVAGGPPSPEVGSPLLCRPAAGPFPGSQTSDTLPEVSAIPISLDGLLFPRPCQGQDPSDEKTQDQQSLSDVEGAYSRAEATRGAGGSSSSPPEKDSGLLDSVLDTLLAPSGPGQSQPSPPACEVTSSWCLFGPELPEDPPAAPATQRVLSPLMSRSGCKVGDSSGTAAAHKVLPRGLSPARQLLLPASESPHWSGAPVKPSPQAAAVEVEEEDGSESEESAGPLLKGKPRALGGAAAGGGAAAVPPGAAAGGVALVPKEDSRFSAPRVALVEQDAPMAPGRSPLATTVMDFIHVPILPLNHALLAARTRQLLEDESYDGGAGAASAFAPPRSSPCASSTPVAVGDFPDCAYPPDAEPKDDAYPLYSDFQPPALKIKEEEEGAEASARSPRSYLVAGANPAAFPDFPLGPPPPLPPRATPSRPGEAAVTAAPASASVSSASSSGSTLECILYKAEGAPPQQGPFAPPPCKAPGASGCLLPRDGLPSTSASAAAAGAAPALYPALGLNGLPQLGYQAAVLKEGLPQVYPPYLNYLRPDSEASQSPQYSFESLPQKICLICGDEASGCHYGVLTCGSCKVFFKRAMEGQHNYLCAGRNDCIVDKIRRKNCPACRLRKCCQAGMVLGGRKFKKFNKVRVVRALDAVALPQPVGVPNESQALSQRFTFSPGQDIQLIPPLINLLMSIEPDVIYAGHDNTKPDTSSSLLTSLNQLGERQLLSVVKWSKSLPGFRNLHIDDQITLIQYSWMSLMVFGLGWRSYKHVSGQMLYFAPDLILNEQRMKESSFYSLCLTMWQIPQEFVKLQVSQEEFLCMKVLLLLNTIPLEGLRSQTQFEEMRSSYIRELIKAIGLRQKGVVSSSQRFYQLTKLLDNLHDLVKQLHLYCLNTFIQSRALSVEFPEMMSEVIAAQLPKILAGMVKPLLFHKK

[7] = Relative fraction unbound in mouse assessed as ratio of fraction unbound in mouse at 10 mg/kg, po to IC50 for NF-kappaB transrepression activity in A549 cells expressing MMTV reporter gene; assay type: ADME, organism-based; design: dose 10 mg/kg, route oral; settings: in vivo
Mus musculus = assay: Inhibition of IL1-induced circulating IL6 release in mouse at 100 mg/kg, po; assay type: functional

O=S(=O)(Cc1ccccc1)Nc1ccc(-c2ccc3c(cnn3-c3ccc(F)cc3)c2)c(C(F)(F)F)c1
concentration at 1 h [1]: 2730 nM | Activity (Hepatocyte): Toxic | fold change (FC) [2]: 0.005 | half-life [3]: 4 h | IC50 [4]: 1.26 nM | fold change (FC) [5]: 0.06 | bioavailability [6]: > 22% | IC50 (Progesterone receptor): > 10000 nM | fold change (FC) [7]: 0.5 | inhibition in vivo at 100 mg/kg (Mus musculus): 57%
